Test results: ChEMBL document CHEMBL6134778, “Spiro-Azetidine Oxindoles as Long-Acting Injectables for Pre-Exposure Prophylaxis against Respiratory Syncytial Virus Infections” (J Med Chem, 2024)
pEC50: −log10 of the molar value. ≈ marks a conversion by molar mass, not a printed value.

How the values were obtained:
[1] = system: Respiratory syncytial virus; assay: Antiviral activity against RSV A2 harboring eGFP infected in human HeLa cells assessed as reduction in virus replication measured after 3 days by laser microscopy; format: functional, organism-based; settings: 72 h
[2] = system: Respiratory syncytial virus; assay: Antiviral activity against RSV A2 harboring eGFP infected in human HeLa cells assessed as reduction in virus replication by measuring 3X protein-adjusted effective concentration for 90% inhibition measured after 3 days in presence of human serum albumin and alpha(1)-acid glycoprotein by laser microscopy; format: functional; settings: time 3 day
[3] = system: HeLa; assay: Cytotoxicity against human HeLa cells assessed as reduction in cell viability at highest concentration measured after 3 days by ATPlite assay; format: toxicity, cell-based; settings: 72 h, time 3 day
[4] = Chromatographic hydrophobicity index, logD of the compound at pH 7.4 by UPLC analysis; format: physicochemical; settings: buffer
[5] = Equilibrium solubility of the compound […] at pH 7 measured after 3 days by LC-MS/MS analysis; format: physicochemical; settings: time 3 day
[6] = Thermodynamic solubility in aqueous buffer at pH 7 incubated for 24 hrs by UPLC analysis; format: physicochemical; settings: read-out: Therm_solubility
[7] = Intrinsic clearance in human liver microsomes assessed per mg protein at 1 uM measured after 60 mins in presence of NADPH by LC-MS/MS analysis; format: ADME, Microsome; settings: read-out: CLH
[8] = Intrinsic clearance in human hepatocytes assessed per million cells at 1 uM measured after 180 mins by LC-MS/MS analysis; format: ADME, cell-based, Hepatocyte; settings: read-out: CLH
[9] = system: Rattus norvegicus; assay: Particle size for the 50th percentile of the cumulative volume distribution in Sprague-Dawley rat at 50 mg/kg, IM […]; format: ADME, organism-based; settings: in vivo
[10] = system: Rattus norvegicus; assay: Release rate constant in Sprague-Dawley rat at 50 mg/kg, IM measured over 12 weeks by LC-MS/MS analysis; format: ADME, organism-based; settings: in vivo, 2016 h
[11] = Bioavailability in Sprague-Dawley rat assessed as dose released at 50 mg/kg, IM measured over 12 weeks by LC-MS/MS analysis; format: ADME, organism-based; settings: in vivo
[12] = Clearance in Sprague-Dawley rat at 2.5 mg/kg, iv by LC-MS/MS analysis; format: ADME, organism-based; settings: in vivo
[13] = Volume of distribution at steady state in Sprague-Dawley rat at 2.5 mg/kg, iv by LC-MS/MS analysis; format: ADME, organism-based; settings: in vivo, read-out: Vdss
[14] = Clearance in Beagle dog at 0.25 mg/kg, iv by LC-MS/MS analysis; format: ADME, organism-based, Canis lupus familiaris; settings: in vivo
[15] = Volume of distribution at steady state in Beagle dog at 0.25 mg/kg, iv by LC-MS/MS analysis; format: ADME, organism-based, Canis lupus familiaris; settings: in vivo, read-out: Vdss
[16] = system: Canis familiaris; assay: Particle size for the 50th percentile of the cumulative volume distribution in Beagle dog at 20 mg/kg, IM […]; format: ADME, organism-based, Canis lupus familiaris; settings: in vivo
[17] = system: Canis familiaris; assay: Release rate constant in Beagle dog at 20 mg/kg, IM by LC-MS/MS analysis; format: ADME, organism-based, Canis lupus familiaris; settings: in vivo
[18] = Bioavailability in Beagle dog assessed as dose released at 20 mg/kg, IM by LC-MS/MS analysis; format: ADME, organism-based, Canis lupus familiaris; settings: in vivo
[19] = Clearance in Sprague-Dawley rat at 1 mg/kg, iv by LC-MS/MS analysis; format: ADME, organism-based; settings: in vivo
[20] = Volume of distribution at steady state in Sprague-Dawley rat at 1 mg/kg, iv by LC-MS/MS analysis; format: ADME, organism-based; settings: in vivo, read-out: Vdss

CC(C)NC(=O)N1CC2(C1)C(=O)N(Cc1nc3cc(Cl)ccc3n1CCCC#N)c1ccccc12
pEC50 [1]: 9.24 | protein-adjusted EC90 [2]: 0.06 µg/mL | Activity [3]: Non-toxic | CHI [4]: 2.37 | solubility at 72 h [5]: < 0.25 µM | solubility thermodynamic at 24 h [6]: < 0.1 µg/mL | microsomal CLint at 1 µM [7]: < 7.7 µL/min/mg | hepatocyte CLint at 1 µM [8]: 1.5 µL/min/1e6 cells | Median particle size (D50) [9]: 5.48 um | Ka [10]: 0 h⁻¹ | bioavailability [11]: 21% | clearance [12]: 21 mL/min/kg | Vd [13]: 3.2 L/kg | clearance [14]: 4.9 mL/min/kg | Vd [15]: 0.56 L/kg | Particle size (D50) [16]: 5.34 um | Ka [17]: 0.001 h⁻¹ | bioavailability [18]: 51%

CC(C)C(=O)N1CC2(C1)C(=O)N(Cc1nc3cc(Cl)ccc3n1CCCCF)c1cnccc12
pEC50 [1]: 9.00 | protein-adjusted EC90 [2]: 0.017 µg/mL | Activity [3]: Non-toxic | CHI [4]: 2.14 | solubility at 72 h [5]: 361 µM (≈ 175 µg/mL) | solubility thermodynamic at 24 h [6]: 44 µg/mL (≈ 90.9 µM) | microsomal CLint at 1 µM [7]: < 7.7 µL/min/mg | hepatocyte CLint at 1 µM [8]: < 1.2 µL/min/1e6 cells | clearance [19]: 26.3 mL/min/kg | Vd [20]: 5.3 L/kg | Median particle size (D50) [9]: 9.11 um | Ka [10]: 0.013 h⁻¹ | bioavailability [11]: 142% | clearance [14]: 11.8 mL/min/kg | Vd [15]: 0.82 L/kg | Particle size (D50) [16]: 5.43 um | Ka [17]: 0.033 h⁻¹ | bioavailability [18]: 122%

CC(C)NC(=O)N1CC2(C1)C(=O)N(Cc1nc3cc(Cl)ccc3n1CCCC(F)(F)F)c1cnccc12
pEC50 [1]: 9.64 | protein-adjusted EC90 [2]: 0.0037 µg/mL | Activity [3]: Non-toxic | CHI [4]: 2.39 | solubility at 72 h [5]: 11 µM (≈ 5.88 µg/mL) | solubility thermodynamic at 24 h [6]: < 0.1 µg/mL | microsomal CLint at 1 µM [7]: < 7.7 µL/min/mg | hepatocyte CLint at 1 µM [8]: < 1.2 µL/min/1e6 cells | clearance [19]: 36.9 mL/min/kg | Vd [20]: 1.94 L/kg | Median particle size (D50) [9]: 4.36 um | Ka [10]: 0.005 h⁻¹ | bioavailability [11]: 107% | clearance [14]: 14.6 mL/min/kg | Vd [15]: 1.66 L/kg | Particle size (D50) [16]: 5.03 um | Ka [17]: 0.01 h⁻¹ | bioavailability [18]: 90%
